Test results: US20120101078A1, “AMIDE DERIVATIVES AS NEUROPEPTIDE Y5 RECEPTOR LIGANDS” (H. Lundbrck A/S, priority 2009, published 2012)
Each block holds one compound with its values, some of them ahead of it.

Tests used:
NPY Y5 receptor [1] = biological target: T1, NPY Y5 receptor (Homo sapiens, UniProt Q15761); experiment: Radioligand (125I-PYY) binding to membrane suspensions, cloned human NPY Y5 receptor; parameters: expressed in transfected cells; host or cells: LM(tk-) cells (typically); settings: 125I-PYY competition, membranes of transfected LM(tk-) cells; read-out: Ki, binding affinity of selected compounds
T1 sequence (Q15761 1-445): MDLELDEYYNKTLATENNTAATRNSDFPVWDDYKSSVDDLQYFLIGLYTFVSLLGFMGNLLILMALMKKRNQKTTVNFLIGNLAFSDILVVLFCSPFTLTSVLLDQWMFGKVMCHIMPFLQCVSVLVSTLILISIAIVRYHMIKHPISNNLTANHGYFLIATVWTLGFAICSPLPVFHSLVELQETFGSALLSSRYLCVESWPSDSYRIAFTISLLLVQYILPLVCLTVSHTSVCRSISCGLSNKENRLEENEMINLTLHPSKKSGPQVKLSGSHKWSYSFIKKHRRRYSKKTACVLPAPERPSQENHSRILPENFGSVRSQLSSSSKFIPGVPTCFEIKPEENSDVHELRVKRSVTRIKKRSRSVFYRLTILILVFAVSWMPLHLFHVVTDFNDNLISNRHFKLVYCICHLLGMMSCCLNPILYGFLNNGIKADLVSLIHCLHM
Procedure: (§1) The pharmacological properties of the compounds of the present invention were evaluated at the cloned human NPY Y5 receptor using the protocols disclosed in U.S. Pat. No. 6,124,331, the contents of which are hereby incorporated by reference. The procedures for cell culture, transient transfection and membrane harvest, which are well known in the art, are described therein
Briefly, membrane suspensions from transfected cells (typically expressed in LM(tk-) cells) and ^125I-PYY radioligand (PerkinElmer, Waltham, Mass.) were diluted in binding buffer supplemented with 0.1% bovine serum albumin to yield an optimal membrane protein concentration so that ^125I-PYY bound by membranes in the assay was less than 10% of ^125I-PYY delivered to the sample (100,000 dpm/sample=0.08 nM for competition binding assays). Test compounds were diluted to desired concentrations with supplemented binding buffer in the presence of 30% DMSO. The binding assay was performed in 96-well polypropylene microtiter plates by mixing 125I-PYY test compound (25 μL), and finally, membrane suspensions (200 μL). Final DMSO=3%. Samples were incubated in at room temperature for about 120 min. Incubations were terminated by filtration over Whatman GF/C filters (pre-coated with 1% polyethyleneimine and air-dried before use), followed by washing with ice-cold binding buffer. Filter-trapped membranes were impregnated with MeltiLex solid scintillant (Wallac, Turku, Finland) and counted for ^125I-PYY in a Wallac MicroBeta Trilux. Non-specific binding was defined by 1000 nM porcine NPY. Specific binding was typically 80%; most non-specific binding was associated with the filter. Binding data were analyzed using nonlinear regression and statistical techniques available in the GraphPAD Prism package (San Diego, Calif.).

NPY Y5 receptor [2] = biological target: T1, NPY Y5 receptor; experiment: NPY Y5-dependent inhibition of forskolin-stimulated cAMP accumulation; type: cell-based; parameters: expressed in transfected cells; settings: stably transfected cells, NPY then forskolin 10 uM, cAMP by HTRF
Procedure: as §1
Stably transfected cells were seeded into 96-well microtiter plates and cultured until confluent. To reduce the potential for receptor desensitization, the serum component of the media was reduced to 1.5% for 4 to 16 hours before the assay. Cells were washed in Hank's buffered saline, or HBS (150 mM NaCl, 20 mM HEPES, 1 mM CaCl2, 5 mM KCl, 1 mM MgCl2, and 10 mM glucose) supplemented with 0.1% bovine serum albumin plus 100 uM IBMX. […] The assay was then terminated and intracellular cAMP was quantified by with highthroughput time-resolved flourometry (HTRF kit from CisBio, Bedford, Mass.). The effect of the test compound on agonist (NPY) activity were analyzed using nonlinear regression and statistical techniques available in the GraphPAD Prism package (San Diego, Calif.). The compounds of Example 2a and 5b were determined to function as an antagonist at the NPY Y5 receptor.

[3] = system: Flinders Sensitive Line rats; settings: chronic dosing 10 mg/kg/day, i.p.; cited from earlier work
Sprague Dawley rats = settings: 3-30 mg/kg, p.o., acute or chronic treatment; cited from earlier work
[4] = system: Flinders Sensitive Line rats; settings: chronic dosing 10 mg/kg/day, i.p.; cited from earlier work; remark: listed apart in the source
Y5 receptor = biological target: T2, Y5 receptor (Rattus norvegicus, UniProt Q63634); settings: increase elicited by i.c.v. injection of cPP(1-7), NPY(19-23),Ala31,Aib32, Gln34]; cited from earlier work
T2 construct: host or cells: animals in vivo (i.c.v. injection of Y5 agonist)
T2 sequence (Q63634 1-445): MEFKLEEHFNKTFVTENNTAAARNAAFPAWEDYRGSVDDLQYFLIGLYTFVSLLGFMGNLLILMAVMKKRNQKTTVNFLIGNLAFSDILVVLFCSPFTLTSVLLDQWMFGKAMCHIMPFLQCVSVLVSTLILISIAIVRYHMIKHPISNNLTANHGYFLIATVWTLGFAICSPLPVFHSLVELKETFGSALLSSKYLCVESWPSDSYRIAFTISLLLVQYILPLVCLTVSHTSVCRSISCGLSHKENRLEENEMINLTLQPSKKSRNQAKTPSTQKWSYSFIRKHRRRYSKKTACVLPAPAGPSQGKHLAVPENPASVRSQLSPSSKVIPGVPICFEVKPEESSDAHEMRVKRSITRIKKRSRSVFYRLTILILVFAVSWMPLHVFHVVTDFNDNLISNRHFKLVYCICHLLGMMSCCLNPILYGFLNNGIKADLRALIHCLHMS

Wistar rats = Wistar rats exposed to chronic mild stress, chronic dosing 3, 10 mg/kg/day, i.p.; cited from earlier work

Ki (NPY Y5 receptor [1]): 720 nM
Structure (SMILES): O=C1CCCN1[C@H]1CC[C@H](C(=O)Nc2ccc(-c3cc(F)cc(F)c3)cn2)CC1 [Example 1a, trans-4-(2-Oxo-pyrrolidin-1-yl)-cyclohexanecarboxylic acid [5-(3,5-difluoro-phenyl)-pyridin-2-yl]-amide]

function at the NPY Y5 receptor (effect on NPY agonist activity) (NPY Y5 receptor [2]): antagonist | Ki (NPY Y5 receptor [1]): 8 nM
Structure (SMILES): O=C1OCCN1[C@H]1CC[C@@H](C(=O)Nc2ccc(-c3cc(F)cc(F)c3)cn2)CC1 [Example 2a, cis-4-(2-Oxo-oxazolidin-3-yl)-cyclohexanecarboxylic acid [5-(3,5-difluoro-phenyl)-pyridin-2-yl]-amide]

Ki (NPY Y5 receptor [1]): 6 nM
Structure (SMILES): O=C1OCCCN1[C@H]1CC[C@@H](C(=O)Nc2ccc(-c3cc(F)cc(F)c3)cn2)CC1 [Example 3a, cis-4-(2-Oxo-perhydro-1,3-oxazin-3-yl)-cyclohexanecarboxylic acid [5-(3,5-difluoro-phenyl)-pyridin-2-yl]-amide]

Ki (NPY Y5 receptor [1]): 9 nM
Structure (SMILES): O=C1NCCCN1[C@H]1CC[C@@H](C(=O)Nc2ccc(-c3cc(F)cc(F)c3)cn2)CC1 [Example 4a, cis-4-(2-Oxo-tetrahydro-pyrimidin-1-yl)-cyclohexanecarboxylic acid [5-(3,5-difluoro-phenyl)-pyridin-2-yl]-amide]

Ki (NPY Y5 receptor [1]): 12 nM
Structure (SMILES): CN1CCCN([C@H]2CC[C@@H](C(=O)Nc3ccc(-c4cc(F)cc(F)c4)cn3)CC2)C1=O [Example 5a, cis-4-(3-Methyl-2-oxotetrahydro-pyrimidin-1-yl)-cyclohexanecarboxylic acid [5-(3,5-difluoro-phenyl)-pyridin-2-yl]-amide]

function at the NPY Y5 receptor (effect on NPY agonist activity) (NPY Y5 receptor [2]): antagonist | Ki (NPY Y5 receptor [1]): 3.8 nM
Structure (SMILES): CN1CCN([C@H]2CC[C@@H](C(=O)Nc3ccc(-c4cc(F)cc(F)c4)cn3)CC2)C1=O [Example 5b, cis-4-(3-Methyl-2-oxo-imidazolidin-1-yl)-cyclohexanecarboxylic acid [5-(3,5-difluoro-phenyl)-pridin-2-yl]-amide]

Ki (NPY Y5 receptor [1]): 8 nM
Structure (SMILES): O=C1COCCN1[C@H]1CC[C@@H](C(=O)Nc2ccc(-c3cc(F)cc(F)c3)cn2)CC1 [Example 6a, cis-4-(3-Oxo-morpholin-4-yl)-cyclohexanecarboxylic acid [5-(3,5-difluoro-phenyl)-pyridin-2-yl]-amide]

Structure (SMILES): CS(=O)(=O)NCC1CCC(Nc2nc3c(s2)CCSc2ccccc2-3)CC1 (stereo not drawn) [Lu AA33810]
effect in forced swim test [3]: antidepressant-like effects | effect in social interaction test (Sprague Dawley rats): anxiolytic-like effects | effect in social interaction test [4]: anxiolytic-like effects | effect on increase in plasma ACTH (Y5 receptor): attenuated increases | effect on increase in plasma cortisol (Y5 receptor): attenuated increases | effect on stress-induced decrease in sucrose consumption (Wistar rats): antidepressant-like activity
